Format in all cases: biochemical
The target in experiment [1] is PI3kγ (Homo sapiens, UniProt P48736). In words: Fluorescent (HTRF) determination of PI3 kinase enzyme activity, PI3Kγ. Conditions: for inhibition at 0.3 µM: 300 nM (Examples 1-59). The text has this: (§1) Assay 1: Fluorescent Determination of PI3Kinase Kinase Enzyme Activity
(§2) Phosphoinositide 3 kinases (PI3K) belong to a class of lipid kinases that play a critical role in the regulation of several key cellular processes. The PI3K are capable of phosphorylating the 3-hydroxy position of phosphoinositols thereby generating second messengers involved in downstream signalling events. The homogenous time resolved fluorescence (HTRF) assay allows detection of 3,4,5-triphosphate (PIP3) formed as a result of phosphorylation of phosphotidylinositol 4,5-biphosphate (PIP2) by PI3K isoforms such as α, β, γ or δ. PI3K isoform activity for a, p, y or 8 was determined using a PI3K human HTRF™ Assay Kit (Millipore, Billerica, Mass.) with modifications. All incubations were carried out at room temperature. Briefly, 0.5 μl of 40× inhibitor (in 100% DMSO) or 100% DMSO were added to each well of a 384-well black plate (Greiner Bio-One, Monroe, N.C.) containing 14.5 μl IX reaction buffer /PIP2 (10 mM MgCl2, 5 mM DTT, 1.38 μM PIP2) mix with or without enzyme and incubated for 10 min. After the initial incubation, 5 μl/well of 400 μM ATP was added and incubated for an additional 30 minutes. Reaction was terminated by adding 5 μl/well stop solution (Millipore, Billerica, Mass.). Five microliters of detection mix (Millipore, Billerica, Mass.) were then added to each well and was incubated for 6-18 h in the dark. HRTF ratio was measured on a microplate reader (BMG Labtech., Germany) at an excitation wavelength of 337 nm and emission wavelengths of 665 and 620 nm with an integration time of 400 μsec.
(§3) Data were analyzed using Graphpad Prism (Graphpad software; San Diego Calif.) for IC50 determination. Examples 1-59 were tested at 1 uM for Pi3kα & Pi3k β and at 0.3 uM for γ and δ. Examples 60-137 were tested at 1 uM for Pi3kα & Pi3k β and at 0.1 uM for γ and δ. Percent inhibition was calculated based on the values for the blank and enzyme controls. The results are as provided in Table 2 (wherein D=0 to 25%; C=>25 to 50%; B=>50 to 75%; A=>75 to 100%; +++++=≤50 nM; ++++=>50 to ≤100 nM; +++=>100 to ≤300 nM; ++=>300 to ≤500 nM; +=>500 nM)
Background: TR-FRET usually uses a lanthanide donor and a delayed reading to cut background.

The target in experiment [2] is PI3kα (Homo sapiens, UniProt P42336). In words: Fluorescent (HTRF) determination of PI3 kinase enzyme activity, PI3Kα.
Description: as §1, §2, §3

In experiment [3] the target is PI3kδ (Homo sapiens, UniProt O00329). In words: Fluorescent (HTRF) determination of PI3 kinase enzyme activity, PI3Kδ. To be noted: for inhibition at 0.3 µM: 300 nM (Examples 1-59).
Description: as §1, §2, §3

Experiment [4] concerns the target PI3kβ (Homo sapiens, UniProt P42338). Put plainly: Fluorescent (HTRF) determination of PI3 kinase enzyme activity, PI3Kβ. To be noted: 1 uM.
Description: as §1, §2, §3

These results are taken from US11020399B2, “Intermediates useful in the synthesis of compounds as modulators of protein kinases” (Rhizen Pharmaceuticals SA, priority 2011, dated 2021).

Chain of PI3kβ (P42338 whole entry): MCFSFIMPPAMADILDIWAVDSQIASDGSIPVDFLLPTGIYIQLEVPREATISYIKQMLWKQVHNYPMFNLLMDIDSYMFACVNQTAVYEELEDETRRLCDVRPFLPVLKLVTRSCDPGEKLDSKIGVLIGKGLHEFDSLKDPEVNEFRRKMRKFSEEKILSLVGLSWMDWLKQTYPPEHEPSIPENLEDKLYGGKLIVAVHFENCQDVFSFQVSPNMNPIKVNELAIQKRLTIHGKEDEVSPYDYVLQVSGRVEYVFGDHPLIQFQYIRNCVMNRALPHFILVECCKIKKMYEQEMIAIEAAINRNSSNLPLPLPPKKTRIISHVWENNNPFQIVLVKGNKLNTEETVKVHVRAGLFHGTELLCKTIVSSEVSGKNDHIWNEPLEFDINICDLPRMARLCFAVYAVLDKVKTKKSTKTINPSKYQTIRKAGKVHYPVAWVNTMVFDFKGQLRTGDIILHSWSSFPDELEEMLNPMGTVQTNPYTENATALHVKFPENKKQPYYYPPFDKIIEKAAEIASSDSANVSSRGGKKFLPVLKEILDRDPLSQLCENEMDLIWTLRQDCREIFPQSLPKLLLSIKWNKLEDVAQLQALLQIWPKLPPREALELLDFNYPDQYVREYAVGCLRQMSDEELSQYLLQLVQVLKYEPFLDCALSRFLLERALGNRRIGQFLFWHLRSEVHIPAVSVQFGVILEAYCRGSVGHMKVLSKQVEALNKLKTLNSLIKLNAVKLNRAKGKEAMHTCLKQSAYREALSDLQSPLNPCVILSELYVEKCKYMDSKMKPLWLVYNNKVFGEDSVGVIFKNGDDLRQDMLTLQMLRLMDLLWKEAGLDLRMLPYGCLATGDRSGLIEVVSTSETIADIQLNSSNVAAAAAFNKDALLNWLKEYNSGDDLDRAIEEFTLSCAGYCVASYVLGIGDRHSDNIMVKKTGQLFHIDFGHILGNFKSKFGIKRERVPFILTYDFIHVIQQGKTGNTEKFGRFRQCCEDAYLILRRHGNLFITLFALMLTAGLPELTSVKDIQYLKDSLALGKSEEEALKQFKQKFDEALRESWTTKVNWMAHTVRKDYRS
Chain of PI3kβ (P27986 whole entry partner): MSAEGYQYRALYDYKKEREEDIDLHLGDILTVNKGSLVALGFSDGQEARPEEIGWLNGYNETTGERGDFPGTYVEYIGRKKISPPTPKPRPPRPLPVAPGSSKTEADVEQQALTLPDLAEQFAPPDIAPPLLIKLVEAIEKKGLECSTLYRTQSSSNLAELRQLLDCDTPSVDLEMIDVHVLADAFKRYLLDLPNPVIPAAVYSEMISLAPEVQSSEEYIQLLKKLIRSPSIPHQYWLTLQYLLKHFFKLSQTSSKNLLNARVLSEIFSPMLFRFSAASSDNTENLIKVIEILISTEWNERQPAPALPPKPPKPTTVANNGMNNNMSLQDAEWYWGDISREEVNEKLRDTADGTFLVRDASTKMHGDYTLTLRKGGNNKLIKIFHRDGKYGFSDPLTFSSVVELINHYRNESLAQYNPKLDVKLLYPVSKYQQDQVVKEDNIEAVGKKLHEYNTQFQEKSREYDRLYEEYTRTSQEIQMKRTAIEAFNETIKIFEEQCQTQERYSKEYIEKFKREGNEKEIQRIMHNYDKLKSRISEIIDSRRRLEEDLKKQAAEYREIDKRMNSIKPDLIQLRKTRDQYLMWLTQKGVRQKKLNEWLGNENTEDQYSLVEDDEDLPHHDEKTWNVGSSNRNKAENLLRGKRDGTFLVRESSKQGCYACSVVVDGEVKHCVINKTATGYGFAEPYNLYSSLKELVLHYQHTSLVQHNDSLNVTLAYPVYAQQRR
Chain of PI3kα (P42336 whole entry): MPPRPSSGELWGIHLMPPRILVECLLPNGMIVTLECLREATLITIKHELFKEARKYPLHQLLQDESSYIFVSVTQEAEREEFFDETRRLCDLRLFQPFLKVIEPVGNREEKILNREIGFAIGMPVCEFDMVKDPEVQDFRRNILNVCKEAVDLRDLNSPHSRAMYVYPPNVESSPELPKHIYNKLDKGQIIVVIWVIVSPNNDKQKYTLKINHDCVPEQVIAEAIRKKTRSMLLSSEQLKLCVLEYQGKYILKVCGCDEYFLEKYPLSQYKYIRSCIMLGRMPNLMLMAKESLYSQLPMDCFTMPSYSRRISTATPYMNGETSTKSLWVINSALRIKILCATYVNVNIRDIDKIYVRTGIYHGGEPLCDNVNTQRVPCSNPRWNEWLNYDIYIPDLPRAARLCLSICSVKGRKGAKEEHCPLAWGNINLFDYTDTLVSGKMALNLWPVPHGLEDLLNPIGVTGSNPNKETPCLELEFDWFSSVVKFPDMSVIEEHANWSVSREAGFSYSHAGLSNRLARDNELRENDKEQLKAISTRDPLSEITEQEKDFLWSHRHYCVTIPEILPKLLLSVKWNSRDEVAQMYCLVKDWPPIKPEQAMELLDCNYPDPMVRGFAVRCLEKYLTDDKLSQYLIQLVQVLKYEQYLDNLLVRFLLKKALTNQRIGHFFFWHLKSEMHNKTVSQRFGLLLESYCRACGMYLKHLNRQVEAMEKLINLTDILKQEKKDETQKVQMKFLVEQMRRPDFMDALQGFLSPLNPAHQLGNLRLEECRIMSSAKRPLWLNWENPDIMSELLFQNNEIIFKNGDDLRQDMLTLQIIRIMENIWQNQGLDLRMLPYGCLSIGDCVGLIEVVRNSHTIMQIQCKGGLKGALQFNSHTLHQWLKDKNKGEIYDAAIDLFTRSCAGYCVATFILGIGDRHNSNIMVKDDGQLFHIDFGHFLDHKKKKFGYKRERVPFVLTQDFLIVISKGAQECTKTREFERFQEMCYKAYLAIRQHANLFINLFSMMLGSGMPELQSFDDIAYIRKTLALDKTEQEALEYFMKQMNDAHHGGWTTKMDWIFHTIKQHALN
Chain of PI3kα (P27986 whole entry partner): as the sequence (P27986 whole entry partner) above
Chain of PI3kγ (P48736 whole entry, canonical isoform): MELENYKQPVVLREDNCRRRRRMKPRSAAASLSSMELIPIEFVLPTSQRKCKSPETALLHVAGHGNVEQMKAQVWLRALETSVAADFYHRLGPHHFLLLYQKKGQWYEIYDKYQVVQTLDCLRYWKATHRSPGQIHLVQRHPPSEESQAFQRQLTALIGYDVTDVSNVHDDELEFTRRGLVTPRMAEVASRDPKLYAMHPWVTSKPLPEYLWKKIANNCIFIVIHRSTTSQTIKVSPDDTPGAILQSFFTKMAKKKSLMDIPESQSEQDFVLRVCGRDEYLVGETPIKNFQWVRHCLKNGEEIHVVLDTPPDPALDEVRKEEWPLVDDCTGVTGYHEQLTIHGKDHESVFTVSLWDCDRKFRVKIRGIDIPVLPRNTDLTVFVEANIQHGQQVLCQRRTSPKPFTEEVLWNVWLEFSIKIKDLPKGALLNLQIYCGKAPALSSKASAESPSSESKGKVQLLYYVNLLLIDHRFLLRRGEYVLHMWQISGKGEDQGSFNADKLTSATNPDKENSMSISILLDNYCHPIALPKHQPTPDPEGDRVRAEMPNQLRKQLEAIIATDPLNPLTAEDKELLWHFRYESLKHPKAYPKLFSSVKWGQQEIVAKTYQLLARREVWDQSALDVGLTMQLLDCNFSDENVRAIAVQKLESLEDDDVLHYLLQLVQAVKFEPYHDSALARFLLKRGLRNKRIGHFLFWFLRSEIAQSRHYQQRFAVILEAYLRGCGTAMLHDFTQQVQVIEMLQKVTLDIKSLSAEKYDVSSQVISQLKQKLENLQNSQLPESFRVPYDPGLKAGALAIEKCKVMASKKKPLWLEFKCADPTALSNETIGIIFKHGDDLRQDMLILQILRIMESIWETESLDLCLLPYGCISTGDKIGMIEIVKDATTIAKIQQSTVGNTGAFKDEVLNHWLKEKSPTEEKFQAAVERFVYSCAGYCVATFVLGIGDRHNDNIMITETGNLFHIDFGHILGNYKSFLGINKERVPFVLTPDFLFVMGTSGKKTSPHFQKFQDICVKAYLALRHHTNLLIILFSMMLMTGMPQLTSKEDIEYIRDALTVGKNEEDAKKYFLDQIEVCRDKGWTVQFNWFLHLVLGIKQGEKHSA
Chain of PI3kδ (O00329 whole entry): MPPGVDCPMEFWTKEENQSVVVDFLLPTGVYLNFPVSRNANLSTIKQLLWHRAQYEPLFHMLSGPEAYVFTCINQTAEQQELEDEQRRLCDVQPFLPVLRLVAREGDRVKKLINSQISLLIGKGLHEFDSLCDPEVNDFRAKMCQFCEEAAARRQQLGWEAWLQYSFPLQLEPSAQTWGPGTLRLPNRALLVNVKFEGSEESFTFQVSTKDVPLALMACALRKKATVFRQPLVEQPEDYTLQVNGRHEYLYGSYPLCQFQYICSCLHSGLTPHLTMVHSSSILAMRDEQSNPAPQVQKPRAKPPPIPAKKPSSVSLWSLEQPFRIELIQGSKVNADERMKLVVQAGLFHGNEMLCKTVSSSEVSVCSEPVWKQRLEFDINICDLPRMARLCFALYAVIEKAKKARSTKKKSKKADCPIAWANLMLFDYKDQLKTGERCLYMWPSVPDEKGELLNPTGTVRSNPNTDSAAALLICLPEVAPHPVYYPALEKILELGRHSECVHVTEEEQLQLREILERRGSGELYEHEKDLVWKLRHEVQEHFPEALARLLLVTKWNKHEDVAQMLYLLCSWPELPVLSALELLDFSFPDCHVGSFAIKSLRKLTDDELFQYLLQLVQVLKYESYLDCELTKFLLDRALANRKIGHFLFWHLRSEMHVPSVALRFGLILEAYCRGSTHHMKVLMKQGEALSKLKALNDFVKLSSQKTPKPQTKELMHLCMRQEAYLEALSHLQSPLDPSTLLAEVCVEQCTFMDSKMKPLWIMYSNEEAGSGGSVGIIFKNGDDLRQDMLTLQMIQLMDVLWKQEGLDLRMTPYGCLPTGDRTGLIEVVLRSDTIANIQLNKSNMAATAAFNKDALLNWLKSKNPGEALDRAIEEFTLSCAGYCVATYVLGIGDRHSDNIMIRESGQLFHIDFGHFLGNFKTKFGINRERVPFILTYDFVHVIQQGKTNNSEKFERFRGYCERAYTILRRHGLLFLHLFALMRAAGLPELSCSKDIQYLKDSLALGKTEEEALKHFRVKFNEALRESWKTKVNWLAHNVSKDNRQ
Chain of PI3kδ (P27986 whole entry partner): as the sequence (P27986 whole entry partner) above

As usually defined, the inhibition is the drop in the measured response relative to a control, in per cent. A lower inhibition goes with a weak effect. `CC(C)Oc1ccc(-c2nn(C(C)c3oc4cccc(F)c4c(=O)c3-c3cccc(F)c3)c3ncnc(N)c23)cn1` (centres unmarked) [Example 40, 2-(1-(4-amino-3-(6-isopropoxypyridin-3-yl)-1H-pyrazolo[3,4-d]pyrimidin-1-yl)ethyl)-5-fluoro-3-(3-fluorophenyl)-4H-chromen-4-one]: the inhibition at 0.3 µM in experiment [1] lay within 0 to 25%; in experiment [3], 50 to 75%. Besides, the values for the inhibition at 1 µM in experiment [2] (1 uM) and in experiment [4] were 25 to 50% and 50 to 75%, respectively.

By IC50 is commonly meant the concentration needed to halve the response being measured. A lower IC50 goes with higher potency. With `CC(C)Oc1ccc(-c2nn(C(C)c3oc4cccc(F)c4c(=O)c3-c3cccc(F)c3)c3ncnc(N)c23)cc1F` (centres unmarked) [Example 6, 2-(1-(4-amino-3-(3-fluoro-4-isopropoxyphenyl)-1H-pyrazolo[3,4-d]pyrimidin-1-yl)ethyl)-5-fluoro-3-(3-fluorophenyl)-4H-chromen-4-one], the IC50 in experiment [1] was 50 to 100 nM; in experiment [2] (numeric values), over 10000 nM; in experiment [3] it was at most 50 nM. The inhibition at 0.3 µM in experiment [1] and in experiment [3] was 75 to 100% in each case. In addition, the inhibition at 1 µM in experiment [2] (1 uM) is 0 to 25%; in experiment [4] it was 25 to 50%.

As for `Cc1nn(C(C)c2oc3cccc(F)c3c(=O)c2-c2cccc(F)c2)c2ncnc(N)c12` (centres unmarked) [Example 33, 2-(1-(4-amino-3-methyl-1H-pyrazolo[3,4-d]pyrimidin-1-yl)ethyl)-5-fluoro-3-(3-fluorophenyl)-4H-chromen-4-one], the inhibition at 0.3 µM in experiment [1] and in experiment [3] was 50 to 75% throughout. Moreover, the inhibition at 1 µM in experiment [2] (1 uM) lay within 0 to 25%; in experiment [4], 25 to 50%.

With `CC(C)Nc1ccc(-c2nn(C(C)c3oc4cccc(F)c4c(=O)c3-c3cccc(F)c3)c3ncnc(N)c23)cc1F` (centres unmarked) [Example 23, 2-(1-(4-amino-3-(3-fluoro-4-(isopropylamino)phenyl)-1H-pyrazolo[3,4-d]pyrimidin-1-yl)ethyl)-5-fluoro-3-(3-fluorophenyl)-4H-chromen-4-one], the concentration for half-maximal inhibition (IC50) in experiment [1] was at most 50 nM; in experiment [3], 50 to 100 nM. Besides, the inhibition at 0.3 µM in experiment [1] and in experiment [3] was 75 to 100% each time. For the same compound, the inhibition at 1 µM in experiment [2] (1 uM) is 0 to 25%; in experiment [4] it was 25 to 50%.

As to `CC(c1oc2cccc(F)c2c(=O)c1-c1cccc(F)c1)n1nc(-c2cccc(NS(C)(=O)=O)c2)c2c(N)ncnc21` (centres unmarked) [Example 128, N-(3-(4-amino-1-(1-(5-fluoro-3-(3-fluorophenyl)-4-oxo-4H-chromen-2-yl)ethyl)-1H-pyrazolo[3,4-d]pyrimidin-3-yl)phenyl)methanesulfonamide], the IC50 in experiment [1] and in experiment [3] was 50 to 100 nM each time. Further, the inhibition at 0.1 µM is 25 to 50% in experiment [1] (100 nM (Examples 60-137)) and 50 to 75% in experiment [3] (100 nM (Examples 60-137)). For the same compound, the values for the inhibition at 1 µM in experiment [2] (1 uM) and in experiment [4] were 25 to 50% and 50 to 75%, respectively.

For the compound `CC(c1oc2cccc(F)c2c(=O)c1-c1ccc(F)cc1)n1ncc2c(N)ncnc21` (centres unmarked) [Example 30, 2-(1-(4-amino-1H-pyrazolo[3,4-d]pyrimidin-1-yl)ethyl)-5-fluoro-3-(4-fluorophenyl)-4H-chromen-4-one], the inhibition at 0.3 µM in experiment [1] was 0 to 25%; in experiment [3], 25 to 50%. Further, the figures for the inhibition at 1 µM in experiment [2] (1 uM) and in experiment [4] were 25 to 50% and 0 to 25%, respectively.

In the case of `CC(c1oc2cccc(F)c2c(=O)c1-c1cccc(F)c1)n1nc(-c2ccc(OC3CCOCC3)c(F)c2)c2c(N)ncnc21` (centres unmarked) [Example 19, 2-(1-(4-amino-3-(3-fluoro-4-(tetrahydro-2H-pyran-4-yloxy)phenyl)-1H-pyrazolo[3,4-d]pyrimidin-1-yl)ethyl)-5-fluoro-3-(3-fluorophenyl)-4H-chromen-4-one], the inhibition at 0.3 µM in experiment [1] was 75 to 100%; in experiment [3] it was 50 to 75%. Moreover, the inhibition at 1 µM in experiment [2] (1 uM) and in experiment [4] was 25 to 50% in each case.

As for `CC(C)c1n[nH]c2cc(-c3nn(C(C)c4oc5cccc(F)c5c(=O)c4-c4cccc(F)c4)c4ncnc(N)c34)ccc12` (centres unmarked) [Example 20, 2-(1-(4-amino-3-(3-isopropyl-1H-indazol-6-yl)-1H-pyrazolo[3,4-d]pyrimidin-1-yl)ethyl)-5-fluoro-3-(3-fluorophenyl)-4H-chromen-4-one], the inhibition at 0.3 µM in experiment [1] fell in the range of 0 to 25%; in experiment [3] it was 75 to 100%. Further, the inhibition at 1 µM in experiment [2] (1 uM) is 0 to 25%; in experiment [4], 25 to 50%. Besides, in experiment [3], the IC50 is 50 to 100 nM.

On to `CC(C)Oc1ccc(-c2nn(C(C)c3oc4cccc(F)c4c(=O)c3-c3cn[nH]c3)c3ncnc(N)c23)cc1F` (centres unmarked) [Example 18, 2-(1-(4-amino-3-(3-fluoro-4-isopropoxyphenyl)-1H-pyrazolo[3,4-d]pyrimidin-1-yl)ethyl)-5-fluoro-3-(1H-pyrazol-4-yl)-4H-chromen-4-one], for which the inhibition at 0.3 µM in experiment [1] lay in the range of 50 to 75%; in experiment [3] it was 75 to 100%. Besides, the inhibition at 1 µM in experiment [2] (1 uM) and in experiment [4] was 0 to 25% throughout. The compound also returned an IC50 in experiment [3] of 50 to 100 nM.

For `CC(c1oc2cccc(F)c2c(=O)c1-c1cccc(F)c1)n1nc(-c2ccc(OC(F)F)c(F)c2)c2c(N)ncnc21` (centres unmarked) [Example 17, 2-(1-(4-amino-3-(4-(difluoromethoxy)-3-fluorophenyl)-1H-pyrazolo[3,4-d]pyrimidin-1-yl)ethyl)-5-fluoro-3-(3-fluorophenyl)-4H-chromen-4-one], the inhibition at 0.3 µM in experiment [1] lay in the range of 25 to 50%; in experiment [3], 75 to 100%. Also, the values for the inhibition at 1 µM in experiment [2] (1 uM) and in experiment [4] were 0 to 25% and 25 to 50%, respectively.

As for `CC(c1oc2cccc(F)c2c(=O)c1-c1cccc(F)c1)n1ncc2c(N)ncnc21` (centres unmarked) [Example 16, 2-(1-(4-amino-1H-pyrazolo[3,4-d]pyrimidin-1-yl)ethyl)-5-fluoro-3-(3-fluorophenyl)-4H-chromen-4-one], the results for the inhibition at 0.3 µM in experiment [1] and in experiment [3] were 0 to 25% and 75 to 100%, respectively. For the same compound, the inhibition at 1 µM in experiment [2] (1 uM) lay in the range of 25 to 50%; in experiment [4] it was 0 to 25%. In addition, the IC50 in experiment [3] lay in the range of 50 to 100 nM.

For the compound `CC(c1oc2cccc(F)c2c(=O)c1-c1cccc(F)c1)n1nc(-c2ccc(N3CCOCC3)c(Cl)c2)c2c(N)ncnc21` (racemic) [Example 126, (S)/(R)-2-(1-(4-amino-3-(3-chloro-4-morpholinophenyl)-1H-pyrazolo[3,4-d]pyrimidin-1-yl)ethyl)-5-fluoro-3-(3-fluorophenyl)-4H-chromen-4-one], the “% inhibition (PI3kγ) 100 nM” value in experiment [1] (100 nM (Examples 60-137), 0.1 µM) is “D (D=0 to 25%)”. The “% inhibition (PI3kα) 1 uM” value in experiment [2] (1 uM) is listed as “D (D=0 to 25%)”. Moreover, the “% inhibition (PI3kδ) 100 nM” value in experiment [3] (100 nM (Examples 60-137)) was “B (B=>50 to 75%)”. Besides, the “% inhibition (PI3kβ) 1 uM” value in experiment [4] was “C (C=>25 to 50%)”.

For the compound `CC(c1oc2cccc(F)c2c(=O)c1-c1cccc(F)c1)n1nc(N2CCCCC2)c2c(N)ncnc21` (centres unmarked) [Example 39, 2-(1-(4-amino-3-(piperidin-1-yl)-1H-pyrazolo[3,4-d]pyrimidin-1-yl)ethyl)-5-fluoro-3-(3-fluorophenyl)-4H-chromen-4-one], the inhibition at 0.3 µM in experiment [1] was in the range of 0 to 25%; in experiment [3] it was 25 to 50%. The inhibition at 1 µM in experiment [2] (1 uM) lay within 25 to 50%; in experiment [4] it was 50 to 75%.

For the compound `CC(c1oc2cccc(F)c2c(=O)c1-c1cccc(F)c1)n1nc(-c2ccc(NCCO)c(F)c2)c2c(N)ncnc21` (centres unmarked) [Example 22, 2-(1-(4-amino-3-(3-fluoro-4-(2-hydroxyethylamino)phenyl)-1H-pyrazolo[3,4-d]pyrimidin-1-yl)ethyl)-5-fluoro-3-(3-fluorophenyl)-4H-chromen-4-one], the inhibition at 0.3 µM in experiment [1] is 25 to 50%; in experiment [3] it was 75 to 100%. The inhibition at 1 µM in experiment [2] (1 uM) lay in the range of 25 to 50%; in experiment [4], 0 to 25%.

In the case of `CC(c1oc2cccc(F)c2c(=O)c1-c1cccc(F)c1)n1nc(-c2ccc(N3CCN(C)CC3)c(F)c2)c2c(N)ncnc21` (centres unmarked) [Example 27, 2-(1-(4-amino-3-(3-fluoro-4-(4-methylpiperazin-1-yl)phenyl)-1H-pyrazolo[3,4-d]pyrimidin-1-yl)ethyl)-5-fluoro-3-(3-fluorophenyl)-4H-chromen-4-one], the inhibition at 0.3 µM in experiment [1] lay in the range of 50 to 75%; in experiment [3] it was 25 to 50%. Further, the inhibition at 1 µM in experiment [2] (1 uM) lay within 0 to 25%; in experiment [4], 25 to 50%.

`CC(c1oc2cccc(F)c2c(=O)c1-c1ccccc1)n1ncc2c(N)ncnc21` (centres unmarked) [Example 29, 2-(1-(4-amino-1H-pyrazolo[3,4-d]pyrimidin-1-yl)ethyl)-5-fluoro-3-phenyl-4H-chromen-4-one]: the inhibition at 0.3 µM in experiment [1] is 50 to 75%; in experiment [3], 25 to 50%. In addition, the figures for the inhibition at 1 µM in experiment [2] (1 uM) and in experiment [4] were 0 to 25% and 25 to 50%, respectively.
